Reference: patent US10571469B2, “Kit for labelling bacteria” (Centre National de la Recherche Scientifique (CNRS), priority 2012, dated 2020)

How the values were obtained:
Shewanella oneidensis = experiment: Metabolic labelling with KDO-N3, click chemistry, fluorescence microscopy (negative control strain); format: cell-based; conditions: KDO-N3 4 mM, 12 hours, 28° C.; A488-yne-Cu(I) click 60 min
Staphylococcus aureus = experiment: as above; format: cell-based; conditions: Gram positive; KDO-N3 4 mM, 12 hours; A488-yne-Cu(I) click 60 min
S. typhimurium 12023 = experiment: Metabolic labelling with KDO-N3, click chemistry, fluorescence microscopy; format: cell-based, Salmonella typhimurium; conditions: KDO-N3 4 mM, 12 hours; A488-yne-Cu(I) click 60 min
Bacillus subtilis = experiment: Metabolic labelling with KDO-N3, click chemistry, fluorescence microscopy (negative control strain); format: cell-based; conditions: Gram positive; KDO-N3 4 mM, 12 hours; A488-yne-Cu(I) click 60 min
E. coli K12 = experiment: Metabolic LPS labelling with KDO-N3, Cu(I) click with A488-yne, fluorescence microscopy; format: cell-based, Escherichia coli
E. coli 086 = experiment: Metabolic labelling with KDO-N3, click chemistry, fluorescence microscopy; format: cell-based, Escherichia coli; conditions: KDO-N3 4 mM, 12 hours; A488-yne-Cu(I) click 60 min
[1] = tested on: Legionella pneumophila strain Paris; format: cell-based; conditions: KDO-N3 4 mM, 12 hours; A488-yne-Cu(I) click 60 min
[2] = mixture with E. coli, LB, 12 hours, 696 analyzed cells
[3] = mixture with B. subtilis, LB, 12 hours, 696 analyzed cells

SMILES: [N-]=[N+]=NC[C@@H](O)[C@@H](O)[C@H](O)[C@H](O)CC(=O)C(=O)O [KDO-N3, 8-azido-3,8-dideoxy-D-manno-octulosonic acid]
- B. subtilis false positive (B. subtilis; 4 KDO-N3+ B. subtilis cells): about 2%
- assimilation in B. subtilis cells of the mixture (B. subtilis; mixture with E. coli): not in cultivable B. subtilis cells
- KDO-N3+ cells, mCherry − (B. subtilis) (B. subtilis; [2]): 4
- KDO-N3− cells, mCherry − (B. subtilis) (B. subtilis; [2]): 166
- cell-surface labeling (Shewanella oneidensis): no labeling
- cell-surface labeling (Staphylococcus aureus): no labeling
- cell-surface labeling (S. typhimurium 12023): efficient and well defined cell-surface labeling
- cell-surface labeling (Bacillus subtilis): no labeling
- E. coli KDO negative (E. coli K12 sodA-mCherry; 9 cells, standard method error range about 10%): about 2%
- assimilation in E. coli cells of the mixture (E. coli K12 sodA-mCherry; mixture with B. subtilis): assimilated in substantially only cultivable E. coli cells
- KDO-N3+ cells, mCherry + (E. coli) (E. coli K12 sodA-mCherry; [3]): 517
- KDO-N3− cells, mCherry + (E. coli) (E. coli K12 sodA-mCherry; [3]): 9
- cell-surface labeling (E. coli K12; KDO-N3 4 mM, 12 hours, A488-yne-Cu(I) click 60 min): efficient and well defined cell-surface labeling
- labeling of bacteria (fluorescence) (E. coli K12; […], click with TGTA and A488-yne, after 5 min, control without KDO-N3 no signal): very bright labeling
- location of fluorescence (E. coli K12; after click labelling with A488-yne, 5 min): mostly evident around the cell periphery
- cell-surface labeling (E. coli 086): efficient and well defined cell-surface labeling
- cell-surface labeling [1]: efficient and well defined cell-surface labeling
